Test results as given in ChEMBL document CHEMBL3885881, “DrugMatrix”.

Species: Rattus norvegicus
Test: DrugMatrix - Regimen: Daily Repeat
Format: toxicity, organism-based, Sprague-Dawley
Set-up: regimen Daily Repeat, gender Male, age 6-8 weeks
Details: in vivo, po, 44 mg/kg, route oral GAVAGE, dose level Low, vehicle 100 % WATER; for ABSOLUTE BASOPHIL / ABSOLUTE EOSINOPHIL / ABSOLUTE LYMPHOCYTE / ABSOLUTE MONOCYTE / ABSOLUTE SEGMENTED NEUTROPHIL / BASOPHIL / EOSINOPHIL / ERYTHROCYTE COUNT / HEMATOCRIT / HEMOGLOBIN / LEUKOCYTE COUNT / LYMPHOCYTE / MEAN CORPUSCULAR HEMOGLOBIN / MEAN CORPUSCULAR HEMOGLOBIN CONCENTRATION / MEAN CORPUSCULAR VOLUME / MONOCYTE / NEUTROPHIL / NUCLEATED RED BLOOD CELLS / PLATELET COUNT: tissue Blood; for ALANINE AMINOTRANSFERASE / ALBUMIN / ALKALINE PHOSPHATASE / ASPARTATE AMINOTRANSFERASE / BLOOD UREA NITROGEN / CARBON DIOXIDE / CHLORIDE / CHOLESTEROL / CREATINE PHOSPHOKINASE / CREATININE / GLUCOSE / LACTATE DEHYDROGENASE / LIPASE / PHOSPHORUS / POTASSIUM / SODIUM / TOTAL BILIRUBIN / TOTAL PROTEIN / URIC ACID: tissue Plasma

## Cn1c(=O)c2c(ncn2CC2OCCO2)n(C)c1=O [DOXOFYLLINE]
72 h, time 3 day
  ABSOLUTE BASOPHIL: 0 CELLS/uL
  ABSOLUTE EOSINOPHIL: 159 CELLS/uL
  ABSOLUTE LYMPHOCYTE: 15168.33 CELLS/uL
  ABSOLUTE MONOCYTE: 106 CELLS/uL
  ABSOLUTE SEGMENTED NEUTROPHIL: 1466.67 CELLS/uL
  BASOPHIL: 0%
  EOSINOPHIL: 1%
  ERYTHROCYTE COUNT: 5.65 x10E6/uL
  HEMATOCRIT: 36.33%
  HEMOGLOBIN: 13.93 G/DL
  LEUKOCYTE COUNT: 16.9 x10E3/uL
  LYMPHOCYTE: 89.67%
  MEAN CORPUSCULAR HEMOGLOBIN: 24.67 pg
  MEAN CORPUSCULAR HEMOGLOBIN CONCENTRATION: 38.37 G/DL
  MEAN CORPUSCULAR VOLUME: 64.23 fL
  MONOCYTE: 0.67%
  NEUTROPHIL: 8.67%
  NUCLEATED RED BLOOD CELLS: 0 /100WBC
  PLATELET COUNT: 1263 x10E3/uL
  ALANINE AMINOTRANSFERASE: 51.33 u/L
  ALBUMIN: 4.3 G/DL
  ALKALINE PHOSPHATASE: 393.67 u/L
  ASPARTATE AMINOTRANSFERASE: 90.67 u/L
  BLOOD UREA NITROGEN: 15.67 mg/dL
  CARBON DIOXIDE: 27 mmol/L
  CHLORIDE: 100.33 MEQ/L
  CHOLESTEROL: 80.67 mg/dL
  CREATINE PHOSPHOKINASE: 250.67 u/L
  CREATININE: 0.19 mg/dL
  GLUCOSE: 159.33 mg/dL
  LACTATE DEHYDROGENASE: 324 u/L
  LIPASE: 9.67 u/L
  PHOSPHORUS: 14.4 mg/dL
  POTASSIUM: 7.21 MEQ/L
  SODIUM: 145.63 MEQ/L
  TOTAL BILIRUBIN: 0.17 mg/dL
  TOTAL PROTEIN: 5.9 G/DL
  URIC ACID: 1.83 mg/dL
120 h, time 5 day
  ABSOLUTE BASOPHIL: 0 CELLS/uL
  ABSOLUTE EOSINOPHIL: 0 CELLS/uL
  ABSOLUTE LYMPHOCYTE: 14176.33 CELLS/uL
  ABSOLUTE MONOCYTE: 62.33 CELLS/uL
  ABSOLUTE SEGMENTED NEUTROPHIL: 1228 CELLS/uL
  BASOPHIL: 0%
  EOSINOPHIL: 0%
  ERYTHROCYTE COUNT: 5.56 x10E6/uL
  HEMATOCRIT: 36.17%
  HEMOGLOBIN: 14.13 G/DL
  LEUKOCYTE COUNT: 15.47 x10E3/uL
  LYMPHOCYTE: 92.33%
  MEAN CORPUSCULAR HEMOGLOBIN: 25.5 pg
  MEAN CORPUSCULAR HEMOGLOBIN CONCENTRATION: 39.1 G/DL
  MEAN CORPUSCULAR VOLUME: 65.23 fL
  MONOCYTE: 0.33%
  NEUTROPHIL: 7.33%
  NUCLEATED RED BLOOD CELLS: 0 /100WBC
  PLATELET COUNT: 1347.67 x10E3/uL
  ALANINE AMINOTRANSFERASE: 51 u/L
  ALBUMIN: 4.17 G/DL
  ALKALINE PHOSPHATASE: 318.33 u/L
  ASPARTATE AMINOTRANSFERASE: 80 u/L
  BLOOD UREA NITROGEN: 17.33 mg/dL
  CARBON DIOXIDE: 29 mmol/L
  CHLORIDE: 100 MEQ/L
  CHOLESTEROL: 75.33 mg/dL
  CREATINE PHOSPHOKINASE: 240 u/L
  CREATININE: 0.17 mg/dL
  GLUCOSE: 165.33 mg/dL
  LACTATE DEHYDROGENASE: 290 u/L
  LIPASE: 9.67 u/L
  PHOSPHORUS: 12.97 mg/dL
  POTASSIUM: 6.07 MEQ/L
  SODIUM: 146.03 MEQ/L
  TOTAL BILIRUBIN: 0.17 mg/dL
  TOTAL PROTEIN: 6.07 G/DL
  URIC ACID: 1.5 mg/dL
